Measured values published in patent US7348336B2 (Sanofi-Aventis Deutschland GmbH, priority 2000, dated 2008).
Where a name gives a salt, the structure may show the parent alone.

How the values were obtained:
[1] = target: T1, IκBα-kinase complex (Homo sapiens, UniProt O14920+O15111); assay: IkB-Kinase ELISA; type: biochemical; conditions: activated IκBα kinase complex from HeLa S3 cell extracts; ELISA; read-out: IkB-kinase IC50;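 also: substrate phosphopeptide captured on Protein-A plates, detected with Streptavidin-HRP and TMB absorbance at 450 nm, activity read from a synthetic phosphopeptide standard curve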
T1 construct: endogenous in cells; host or cells: HeLa S3 cell extract, S100 fraction; ammonium sulfate precipitation and Superose-6 size exclusion
T1 sequence (O14920 whole entry): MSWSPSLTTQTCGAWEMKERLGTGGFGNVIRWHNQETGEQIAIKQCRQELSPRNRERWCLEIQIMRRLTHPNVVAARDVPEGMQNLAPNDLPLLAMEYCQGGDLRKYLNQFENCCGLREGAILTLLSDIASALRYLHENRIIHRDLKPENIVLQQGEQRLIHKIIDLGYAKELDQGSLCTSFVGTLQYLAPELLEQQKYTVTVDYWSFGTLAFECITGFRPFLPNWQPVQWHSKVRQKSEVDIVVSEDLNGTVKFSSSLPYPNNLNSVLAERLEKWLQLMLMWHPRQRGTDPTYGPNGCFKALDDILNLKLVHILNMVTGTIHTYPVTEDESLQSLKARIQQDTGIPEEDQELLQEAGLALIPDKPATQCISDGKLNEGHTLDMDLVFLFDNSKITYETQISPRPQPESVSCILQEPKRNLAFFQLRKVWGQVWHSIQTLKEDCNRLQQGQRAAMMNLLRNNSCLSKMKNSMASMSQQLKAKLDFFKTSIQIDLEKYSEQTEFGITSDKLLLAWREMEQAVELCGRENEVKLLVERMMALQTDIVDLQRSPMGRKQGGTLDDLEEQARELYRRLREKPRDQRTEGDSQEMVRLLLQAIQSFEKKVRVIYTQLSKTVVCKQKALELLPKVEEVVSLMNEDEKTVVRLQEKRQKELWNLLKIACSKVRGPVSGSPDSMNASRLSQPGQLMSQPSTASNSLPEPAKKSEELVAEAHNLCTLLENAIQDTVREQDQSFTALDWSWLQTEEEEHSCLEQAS
T1 sequence (O15111 whole entry): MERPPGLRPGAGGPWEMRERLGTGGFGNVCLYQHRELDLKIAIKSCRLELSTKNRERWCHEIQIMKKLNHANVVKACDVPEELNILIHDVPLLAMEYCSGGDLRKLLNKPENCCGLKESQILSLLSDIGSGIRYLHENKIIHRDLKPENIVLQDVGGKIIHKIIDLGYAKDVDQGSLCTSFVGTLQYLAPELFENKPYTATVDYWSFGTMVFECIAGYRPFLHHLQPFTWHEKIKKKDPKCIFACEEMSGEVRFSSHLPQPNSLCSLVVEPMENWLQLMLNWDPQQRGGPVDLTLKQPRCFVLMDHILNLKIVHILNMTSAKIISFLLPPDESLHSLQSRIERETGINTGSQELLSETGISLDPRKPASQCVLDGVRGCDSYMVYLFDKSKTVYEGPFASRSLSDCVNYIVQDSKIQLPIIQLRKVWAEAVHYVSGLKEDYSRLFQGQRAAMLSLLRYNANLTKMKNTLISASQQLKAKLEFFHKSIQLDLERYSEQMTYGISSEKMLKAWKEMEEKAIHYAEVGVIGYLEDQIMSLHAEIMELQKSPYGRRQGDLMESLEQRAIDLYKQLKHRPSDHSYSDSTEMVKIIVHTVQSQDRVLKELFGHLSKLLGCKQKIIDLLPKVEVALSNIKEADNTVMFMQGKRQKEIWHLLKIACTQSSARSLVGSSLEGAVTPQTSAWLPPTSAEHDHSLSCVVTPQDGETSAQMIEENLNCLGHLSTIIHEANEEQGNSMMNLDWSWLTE
T1 sequence (Q9Y6K9 whole entry partner): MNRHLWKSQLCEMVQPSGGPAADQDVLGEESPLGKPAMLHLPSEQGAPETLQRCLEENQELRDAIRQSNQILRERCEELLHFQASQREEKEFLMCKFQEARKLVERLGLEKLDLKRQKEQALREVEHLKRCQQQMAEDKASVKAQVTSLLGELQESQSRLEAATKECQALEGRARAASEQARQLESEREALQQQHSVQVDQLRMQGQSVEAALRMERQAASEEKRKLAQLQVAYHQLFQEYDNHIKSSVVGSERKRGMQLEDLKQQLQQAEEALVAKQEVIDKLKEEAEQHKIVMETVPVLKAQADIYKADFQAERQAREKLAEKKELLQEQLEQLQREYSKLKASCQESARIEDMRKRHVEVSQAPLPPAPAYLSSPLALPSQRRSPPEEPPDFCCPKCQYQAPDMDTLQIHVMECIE

[2] = test system: cardiac allograft (BALB/c->C57BL/6 or B6/129); assay: Mouse heterotopic cardiac transplant model; type: in vivo; conditions: oral, 25 mg/kg/day for 14 days, starting at transplantation; mean±SD
Excerpt: Mouse Heterotopic Cardiac Transplant Model
In the mouse heterotopic cardiac transplant model across full histocompatibility barriers (BALB/c->C57BL/6 or B6/129), graft survival is typically limited to 7.3±0.4 days (mean±SD, n0 allografts) (see for example in Hancock W W, Sayegh M H, Zheng X G, Peach R, Linsley P S, Turka L A. Costimulatory function and expression of CD40-ligand, CD80 and CD86 or in vascularized murine cardiac allograft rejection. Proc Natl Acad Sci (USA) 93, 1996, 13967-13972; and Hancock W W, Buelow R, Sayegh M H, Turka L A. Antibody-induced transplant arteriosclerosis is prevented by graft expression of anti-oxidant and anti-apoptotic genes. Nature Med 4, 1998, 1392-1396).
The effects of oral administration of the compounds according to examples 49 and 60 were tested using 25 mg/kg/day for 14 days, starting at transplantation in said animal model. Whereas grafts in animals receiving the carrier, methyl-cellulose, rejected by 7 days (6.7±0.8), grafts in compound 49-treated mice survived around 15 days (15.3±0.6), and grafts in those given compound 60 survived for 20 days (20±1). Current immunosuppressive therapies used in transplantation have limited efficacy and/or considerable toxicity.

| Structure (SMILES) | IC50 [1] [nM] | graft survival [2] [days] |
| --- | --- | --- |
| O=C(Nc1cc(Cl)cc2c1[nH]c1cnccc12)c1ccc(F)cc1 [Example 49, trifluoroacetate] | 220 | 15.3 ± 0.6 |
| O=C(Nc1cc(Cl)cc2c1[nH]c1cnccc12)c1cccs1 [Example 76] | 900 | – |
| CCOc1c(Cl)cc2c([nH]c3cnccc32)c1Cl [Example 39] | 100 | – |
| COc1c(Cl)cc2c([nH]c3cnccc32)c1NC(=O)c1ccc(F)cc1 [Example 114] | 2100 | – |
| O=C(c1cccnc1)N1CCn2c3cnccc3c3cc(Cl)cc1c32 [Example 69] | 3000 | – |
